In patent US20220073554A1, “LINCOSAMIDE ANTIBIOTICS AND USES THEREOF” (President and Fellows of Harvard College, priority 2017, published 2022):
Converted amounts (≈) assume the structure as drawn. Like-named read-outs stand apart in the source and are kept apart here.

Assays:
Type in all cases: cell-based
[1] = tested on: K. pneumoniae UNT TEM-10; assay: microbe, parasite or virus in culture; conditions: Klebsiella pneumoniae, UNTTEM10
[2] = tested on: E. faecalis MMX 847 Macrolide-Resistant; assay: MIC against E. faecalis MMX 847 Macrolide-Resistant; conditions: Enterococcus faecalis
[3] = tested on: S. pyogenes ATCC 19615; assay: MIC against S. pyogenes ATCC 19615; conditions: Streptococcus pyogenes, ATCC19615; S. pyogenes ATCC 19615; read-out: MIC
[4] = tested on: E. coli MMX TolC parent strain; assay: MIC against E. coli MMX TolC parent strain; conditions: Escherichia coli
[5] = tested on: P. aeruginosa MMX Mex parent strain; assay: MIC against P. aeruginosa MMX Mex parent strain; conditions: Pseudomonas aeruginosa
[6] = tested on: C. difficile BAA 1805; assay: MIC against C. difficile BAA 1805; conditions: Clostridioides difficile, BAA1805; C. difficile BAA 1805; read-out: MIC
[7] = tested on: S. pneumoniae MMX 3031 cMefA; assay: MIC against S. pneumoniae MMX 3031 cMefA; conditions: Streptococcus pneumoniae, MMX3031CMEFA
[8] = tested on: E. coli ATCC 15922; assay: MIC against E. coli ATCC 15922; conditions: Escherichia coli, ATCC15922
[9] = tested on: S. aureus BAA-1556 (USA 300); assay: microbe, parasite or virus in culture; conditions: Staphylococcus aureus
[10] = tested on: S. aureus UNT-146, MP-620, TP 506 (ermA); assay: microbe, parasite or virus in culture; conditions: Staphylococcus aureus
[11] = tested on: S. pyogenes MMX 946 Macrolide-Resistant; assay: MIC against S. pyogenes MMX 946 Macrolide-Resistant; conditions: Streptococcus pyogenes
[12] = tested on: E. faecalis UNT-047 VRE; assay: microbe, parasite or virus in culture; conditions: Enterococcus faecalis
[13] = tested on: S. aureus MP-549 msr(a) USA 300; assay: MIC against S. aureus MP-549 msr(a) USA 300; conditions: Staphylococcus aureus, USA300, S. aureus MP-549 msr(a) USA 300
[14] = tested on: E. coli MMX 0121 ΔTolC; assay: MIC against E. coli MMX 0121 ΔTolC; conditions: Escherichia coli
[15] = tested on: P. aeruginosa ATCC 27853; assay: MIC against P. aeruginosa ATCC 27853; conditions: Pseudomonas aeruginosa, ATCC27853
[16] = tested on: S. aureus UNT-120, MP-619, NR522 (USA 600, GISA); assay: microbe, parasite or virus in culture; conditions: Staphylococcus aureus, USA600
[17] = tested on: H. influenzae ATCC 49247; assay: MIC against H. influenzae ATCC 49247; conditions: Haemophilus influenzae, ATCC49247; H. influenzae ATCC 49247; read-out: MIC
[18] = tested on: S. pyogenes UNT-014, MP-625 MacRes; assay: MIC against S. pyogenes UNT-014, MP-625 MacRes; conditions: Streptococcus pyogenes
[19] = tested on: S. aureus MMX 3035 cErmA; assay: MIC against S. aureus MMX 3035 cErmA; conditions: Staphylococcus aureus, MMX3035CERMA
[20] = tested on: S. pneumoniae TP 1537 (ermB + mefA); assay: MIC against S. pneumoniae TP 1537 (ermB + mefA); conditions: Streptococcus pneumoniae
[21] = tested on: K. pneumoniae IHMA 658692; KPC-2; assay: microbe, parasite or virus in culture; conditions: Klebsiella pneumoniae
[22] = tested on: S. pneumoniae UNT-038, MP-626, TP 160 (mefA); assay: MIC against S. pneumoniae UNT-038, MP-626, TP 160 (mefA); conditions: Streptococcus pneumoniae
[23] = tested on: E. coli GUEST131 (NDM-1); assay: microbe, parasite or virus in culture; conditions: Escherichia coli
[24] = tested on: S. aureus UNT96, NRS710, MP-618 (USA100, Erythro > 8); assay: microbe, parasite or virus in culture; conditions: Staphylococcus aureus
[25] = tested on: S. pneumoniae UNT-039, MP-627, TP1517 (mefA); assay: MIC against S. pneumoniae UNT-039, MP-627, TP1517 (mefA); conditions: Streptococcus pneumoniae
[26] = tested on: S. pneumoniae ATCC 49619; assay: MIC against S. pneumoniae ATCC 49619; conditions: Streptococcus pneumoniae, ATCC49619; S. pneumoniae ATCC 49619; read-out: MIC
[27] = tested on: S. pneumoniae TP 1579 (ermB + tet(M, O)); assay: MIC against S. pneumoniae TP 1579 (ermB + tet(M, O)); conditions: Streptococcus pneumoniae
[28] = tested on: B. fragilis ATCC 25285; assay: MIC against B. fragilis ATCC 25285; conditions: Bacteroides fragilis, ATCC25285; B. fragilis ATCC 25285; read-out: MIC
[29] = tested on: E. faecalis ATCC 29212; assay: MIC against E. faecalis ATCC 29212; conditions: Enterococcus faecalis
[30] = tested on: S. aureus BAA 977 iErmA; assay: MIC against S. aureus BAA 977 iErmA; conditions: Staphylococcus aureus, BAA977
[31] = tested on: S. aureus ATCC 29213; assay: MIC against S. aureus ATCC 29213; conditions: Staphylococcus aureus, ATCC29213, S. aureus ATCC 29213; read-out: MIC
[32] = tested on: K. pneumoniae ATCC 10031; assay: MIC against K. pneumoniae ATCC 10031; conditions: Klebsiella pneumoniae, ATCC10031; K. pneumoniae ATCC 10031; read-out: MIC

SMILES: CSC1O[C@H]([C@H](NC(=O)[C@H]2NC[C@@H]3CC=CCO[C@H]32)[C@H](C)Cl)C(O)[C@@H](O)[C@H]1O (some centres unmarked) [FSA-24035]
- MIC [1]: > 32 µg/mL
- MIC [2]: > 64 µg/mL
- MIC [3]: ≤ 0.0313 µg/mL
- MIC [4]: > 64 µg/mL
- MIC [5]: > 64 µg/mL
- MIC [6]: 2 µg/mL (≈ 4.58 µM)
- MIC [7]: ≤ 0.06 µg/mL
- MIC [8]: > 64 µg/mL
- MIC [9]: > 32 µg/mL
- MIC [10]: > 32 µg/mL
- MIC [11]: 16 µg/mL (≈ 36.6 µM)
- MIC [12]: > 32 µg/mL
- MIC [13]: 0.5 µg/mL (≈ 1.14 µM)
- MIC [14]: 4 µg/mL (≈ 9.15 µM)
- MIC [15]: > 64 µg/mL
- MIC [16]: > 32 µg/mL
- MIC [17]: 1 µg/mL (≈ 2.29 µM)
- MIC [18]: ≤ 0.0313 µg/mL
- MIC [19]: > 64 µg/mL
- MIC ([20]; S. pneumoniae TP 1537 (ermB + mefA), read-out: MIC): 32 µg/mL
- MIC [21]: > 32 µg/mL
- MIC [22]: ≤ 0.0313 µg/mL
- MIC [23]: > 32 µg/mL
- MIC [24]: > 32 µg/mL
- MIC [25]: ≤ 0.0313 µg/mL
- MIC [26]: ≤ 0.06 µg/mL
- MIC [27]: ≤ 0.0313 µg/mL
- MIC [28]: 8 µg/mL (≈ 18.3 µM)
- MIC ([29]; ATCC29212): 16 µg/mL (≈ 36.6 µM)

SMILES: CSC1O[C@H]([C@H](NC(=O)[C@H]2NC[C@@H]3CC(F)(F)CCO[C@H]32)[C@H](C)Cl)C(O)[C@@H](O)[C@H]1O (some centres unmarked) [FSA-24036]
- MIC [1]: > 32 µg/mL
- MIC ([2]; E. faecalis MMX 847 Macrolide-Resistant (MacRes), read-out: MIC): > 64 µg/mL
- MIC [3]: ≤ 0.0313 µg/mL
- MIC ([4]; E. coli MMX TolC parent strain, read-out: MIC): > 64 µg/mL
- MIC ([5]; P. aeruginosa MMX Mex parent strain, read-out: MIC): > 64 µg/mL
- MIC [6]: 2 µg/mL (≈ 4.21 µM)
- MIC [7]: ≤ 0.06 µg/mL
- MIC ([8]; E. coli ATCC 15922, read-out: MIC): > 64 µg/mL
- MIC [9]: > 32 µg/mL
- MIC [10]: > 32 µg/mL
- MIC ([11]; S. pyogenes MMX 946 Macrolide-Resistant (MacRes), read-out: MIC): 4 µg/mL (≈ 8.42 µM)
- MIC [12]: > 32 µg/mL
- MIC [14]: 8 µg/mL (≈ 16.8 µM)
- MIC ([15]; P. aeruginosa ATCC 27853, read-out: MIC): > 64 µg/mL
- MIC [16]: > 32 µg/mL
- MIC [17]: 4 µg/mL (≈ 8.42 µM)
- MIC [18]: ≤ 0.0313 µg/mL
- MIC ([19]; S. aureus MMX 3035 cErmA, read-out: MIC): > 64 µg/mL
- MIC [20]: > 32 µg/mL
- MIC [21]: > 32 µg/mL
- MIC [22]: ≤ 0.0313 µg/mL
- MIC [23]: > 32 µg/mL
- MIC [24]: > 32 µg/mL
- MIC [25]: ≤ 0.0313 µg/mL
- MIC [26]: ≤ 0.06 µg/mL
- MIC [27]: ≤ 0.0313 µg/mL
- MIC [28]: 4 µg/mL (≈ 8.42 µM)
- MIC ([29]; ATCC29212, read-out: MIC): 4 µg/mL (≈ 8.42 µM)
- MIC [30]: 0.5 µg/mL (≈ 1.05 µM)

SMILES: CSC1O[C@H]([C@H](NC(=O)[C@@H]2[C@@H]3OCCCC[C@H]3CN2C)[C@H](C)Cl)C(O)[C@@H](O)[C@H]1O (some centres unmarked) [FSA-24040]
- MIC [3]: ≤ 0.0313 µg/mL
- MIC [8]: > 32 µg/mL
- MIC [9]: > 32 µg/mL
- MIC [10]: > 32 µg/mL
- MIC [12]: > 32 µg/mL
- MIC [31]: ≤ 0.0313 µg/mL
- MIC [15]: > 32 µg/mL
- MIC [16]: > 32 µg/mL
- MIC [32]: 8 µg/mL (≈ 17.7 µM)
- MIC [17]: 8 µg/mL (≈ 17.7 µM)
- MIC [18]: ≤ 0.0313 µg/mL
- MIC [20]: > 32 µg/mL
- MIC [21]: > 32 µg/mL
- MIC [22]: ≤ 0.0313 µg/mL
- MIC [23]: > 32 µg/mL
- MIC [24]: > 32 µg/mL
- MIC [25]: ≤ 0.0313 µg/mL
- MIC [26]: ≤ 0.0313 µg/mL
- MIC [27]: ≤ 0.0313 µg/mL
